Biological target: T1, CCR1 (Homo sapiens, UniProt P32246)
T1 sequence (P32246 1-355): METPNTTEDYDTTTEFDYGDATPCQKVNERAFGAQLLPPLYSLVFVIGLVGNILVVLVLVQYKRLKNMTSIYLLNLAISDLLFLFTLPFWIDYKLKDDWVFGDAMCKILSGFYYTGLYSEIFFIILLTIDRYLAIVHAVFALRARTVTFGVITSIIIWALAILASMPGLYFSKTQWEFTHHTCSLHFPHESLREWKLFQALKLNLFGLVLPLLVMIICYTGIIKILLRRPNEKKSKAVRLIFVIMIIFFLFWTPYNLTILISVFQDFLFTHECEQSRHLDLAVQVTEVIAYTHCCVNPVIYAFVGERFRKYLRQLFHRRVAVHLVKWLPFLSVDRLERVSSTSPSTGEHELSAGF
Assay: Ligand binding to CCR1

## CCCCOCCOc1ccc(-c2ccc3c(c2)/C=C(/C(=O)Nc2ccc([S@@+]([O-])Cc4cncn4CCC)cc2)CCCN3CC(C)C)cc1 [CVC, (S)-8-[4-(2-Butoxyethoxy)phenyl]-1-isobutyl-N-(4-{[(1-propyl-1H-imidazol-5-yl)methyl]sulfinyl}phenyl)-1,2,3,4-tetrahydro-1-benzazocine-5-carboxamide]
  inhibition of ligand binding (in words): did not inhibit

— US20170105969A1, “CENICRIVIROC FOR THE TREATMENT OF HIV-2 INFECTION” (Tobira Therapeutics, Inc., priority 2014, published 2017)
